Results as given in PMC7111628 (Antiviral Research, 2020).
Read-outs that look alike come from different tables or passages of the source.

Columns and labels:
[1] = MTT cytotoxicity assay in Hep-2 cells; type: cell-based; settings: human, CC50, Hep-2 cells, MTT assay, concentration required to reduce cell viability by 50%
HSV-1 (F strain) [2] = assay: CPE inhibition assay, HSV-1; settings: for IC50: read-out: HSV-1 IC50
HSV-2 (333 strain) [3] = assay: CPE inhibition assay, HSV-2; settings: for IC50: read-out: HSV-2 IC50
[4] = MTT cytotoxicity assay in HeLa cells; type: cell-based; settings: human, CC50, HeLa cells, MTT assay, concentration required to reduce cell viability by 50%
HSV-1 (F strain) [5] = assay: Murine intranasal model of HSV pneumonia and encephalitis; type: in vivo, BALB/c mice; settings: for survival by day 14 post infection: placebo 20%
Vero cells = assay: MTT cytotoxicity assay in Vero cells; type: cell-based; settings: 50 to 400 μM, 24 h incubation
HVEM and nectin-1 = assay: DARTS assay, cellular surface receptors of HSV-1; type: binding; settings: 60 μM; HSV-1 infected Vero cell lysates
HSV-2 [6] = assay: Plaque reduction assay, HSV-2; type: cell-based, Herpes simplex virus type 2; settings: pretreatment of HSV with 1.25-20 μM; Vero cells
HSV-1 [7] = assay: Plaque reduction assay, HSV-1; type: cell-based, Herpes simplex virus type 1; settings: pretreatment of HSV with 1.25-20 μM; Vero cells
HSV-1 (F strain) [8] = assay: Virus yield in culture media by plaque assay, HSV-1; type: cell-based, Herpes simplex virus type 1; settings: Vero cells; concentration >1.25 μM; 24 h p.i.; p < 0.05
HSV-1 [9] = assay: Time-of-addition assay, HSV-1; settings: Vero cells, 24 h p.i.
Hep-2 cells = assay: MTT cytotoxicity assay in Hep-2 cells; type: cell-based; settings: 50 to 400 μM, MTT, 24 h incubation
HSV-1 [10] = settings: Vero cells; ref Lyu et al., 2005; cited from earlier work
HSV-1 gD protein [11] = target: T1, HSV-1 gD protein (Human herpesvirus 1, UniProt Q69091); assay: HSV-1 gD binding to Vero cells, cell ELISA; type: cell-based, Herpes simplex virus type 1
EGFR/PI3K/Akt pathway [12] = type: cell-based; settings: 5, 10, 20 μM; Vero cells treated with HSV-1 gD protein (2 μg/ml); vs gD treated control, p < 0.05
HSV-1 gD mRNA = assay: Real-time RT-PCR of gD mRNA, HSV-1 infected Vero cells; type: cell-based, Herpes simplex virus type 1; settings: 5, 10, 20 μM; HSV-1 (MOI = 1.0) infected Vero cells, 8 h; p < 0.05
[13] = test system: HIV reverse transcriptase; settings: ref Pasetto et al., 2014; cited from earlier work
gD protein = assay: Western blot of virus gD expression during 5-7 h p.i.; type: cell-based, Herpes simplex virus type 2; settings: treatment during 5-7 h p.i.
[14] = test system: gB, gC, and gH/gL proteins; assay: DARTS assay, other virus surface glycoproteins; type: binding, Herpes simplex virus type 1; settings: 60 μM; HSV-1 infected Vero cell lysates
HSV-2 (333 strain) [15] = assay: Virus yield in culture media by plaque assay, HSV-2; type: cell-based, Herpes simplex virus type 2; settings: Vero cells; concentration >1.25 μM; 24 h p.i.; p < 0.05
HSV-2 [16] = assay: Time-of-addition assay, HSV-2; settings: Vero cells, 24 h p.i.
phosphorylated Akt = assay: Western blot of phosphorylated Akt in HSV-2 infected cells; type: cell-based; settings: HSV-2 (MOI = 1.0) infected cells, virus control about 12.1
HeLa cells = assay: MTT cytotoxicity assay in HeLa cells; type: cell-based; settings: 50 to 400 μM, MTT, 24 h incubation
HSV-2 [17] = assay: Cell fusion inhibition assay; type: cell-based, Herpes simplex virus type 2; settings: 30, 15 μM during 5-7 h p.i.; HSV-2 (MOI = 3.0) infected Vero cells
EGFR/PI3K/Akt pathway [18] = assay: Western blot of phosphorylated EGFR, PI3K and Akt in non-infected Vero cells; type: cell-based; settings: 2.5, 5, 10, 20 μM for 2 h
phosphorylated EGFR = assay: Western blot of phosphorylated EGFR in HSV-2 infected cells; type: cell-based; settings: HSV-2 (MOI = 1.0) infected cells, virus control about 2.4
phosphorylated PI3K = assay: Western blot of phosphorylated PI3K in HSV-2 infected cells; type: cell-based; settings: HSV-2 (MOI = 1.0) infected cells, virus control about 1.9
HSV-1 (F strain) [19] = assay: Indirect immunofluorescence assay of ICP27 in HSV-1 infected Vero cells; settings: pretreatment of virus with 10 μM before infection
[20] = test system: EGFR, PI3K and Akt proteins; assay: Western blot of total EGFR, PI3K and Akt in HSV-2 infected Vero cells; type: cell-based; settings: 2.5, 5, 10, 20 μM for 2 h
[21] = test system: SARS-CoV helicase protein; settings: cited from earlier work
HSV-2 gD mRNA = assay: Real-time RT-PCR of gD mRNA, HSV-2 infected Vero cells; type: cell-based, Herpes simplex virus type 2; settings: 5, 10, 20 μM; HSV-2 (MOI = 1.0) infected Vero cells, 8 h; p < 0.05
HSV-1 gD protein [22] = target: T1, HSV-1 gD protein; assay: DARTS assay, gD; type: binding, Herpes simplex virus type 1; settings: 60 μM; pronase 3 μg/ml; HSV-1 infected Vero cell lysates
HSV-1 gD protein [23] = target: T1, HSV-1 gD protein; assay: Surface plasmon resonance; type: binding, Herpes simplex virus type 1
[24] = 10 mg·kg-1 intraperitoneal, day 4 p.i.
[25] = 20 μM for 1 h before infection, p < 0.01

T1 sequence (Q69091 26-394): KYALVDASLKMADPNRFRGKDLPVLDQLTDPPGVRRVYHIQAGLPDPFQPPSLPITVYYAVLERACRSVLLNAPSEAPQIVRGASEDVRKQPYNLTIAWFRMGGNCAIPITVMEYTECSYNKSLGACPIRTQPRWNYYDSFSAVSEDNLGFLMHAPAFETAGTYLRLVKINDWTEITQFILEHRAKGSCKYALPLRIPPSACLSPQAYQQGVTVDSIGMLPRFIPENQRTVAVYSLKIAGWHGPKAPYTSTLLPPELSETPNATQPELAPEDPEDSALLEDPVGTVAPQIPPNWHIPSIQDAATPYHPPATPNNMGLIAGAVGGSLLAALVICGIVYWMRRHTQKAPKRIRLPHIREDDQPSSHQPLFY

Nc1nc2c(ncn2COCCO)c(=O)[nH]1 [Acyclovir]
CC50 at 24 h [1]: 898 ± 72.6 µM
HSV-1 SI (CC50/IC50) (HSV-1 (F strain) [2]; HeLa cells): 75.5
HSV-1 SI (CC50/IC50) (HSV-1 (F strain) [2]; Hep-2 cells): 46.5
IC50 (HSV-1 (F strain) [2]; Human alphaherpesvirus 1, HEp-2, 24 h): 19.3 ± 2.2 µM
IC50 (HSV-1 (F strain) [2]; Human alphaherpesvirus 1, HeLa, 24 h): 11 ± 1.2 µM
IC50 (HSV-1 (F strain) [2]; Human alphaherpesvirus 1, Vero, 24 h): 7.4 ± 0.6 µM
HSV-1 SI (CC50/IC50) (HSV-1 (F strain) [2]; Vero cells): 131.8
HSV-2 SI (CC50/IC50) (HSV-2 (333 strain) [3]; HeLa cells): 37.9
HSV-2 SI (CC50/IC50) (HSV-2 (333 strain) [3]; Hep-2 cells): 31.5
IC50 (HSV-2 (333 strain) [3]; Human alphaherpesvirus 2, HEp-2, 24 h): 28.5 ± 4.3 µM
IC50 (HSV-2 (333 strain) [3]; Human alphaherpesvirus 2, HeLa, 24 h): 21.9 ± 3.2 µM
IC50 (HSV-2 (333 strain) [3]; Human alphaherpesvirus 2, Vero, 24 h): 11.6 ± 2.5 µM
HSV-2 SI (CC50/IC50) (HSV-2 (333 strain) [3]; Vero cells): 84.1
CC50 at 24 h [4]: 830 ± 40 µM
survival by day 14 post infection (HSV-1 (F strain) [5]; 10 mg·kg-1 intraperitoneal once daily for five days): 90%
virus titers in lungs (HSV-1 (F strain) [5]; [24]): significant reduction of virus titers
virus titers in spinal cord (HSV-1 (F strain) [5]; [24]): significant reduction of virus titers

O=c1c(O)c(-c2cc(O)c(O)c(O)c2)oc2cc(O)cc(O)c12 [Myricetin, 3,5,7-trihydroxy-2-(3,4,5-trihydroxyphenyl)-4-benzopyrone]
cytotoxicity (Vero cells): no significant cytotoxicity
protection of HVEM and nectin-1 from protease digestion (HVEM and nectin-1): could also not be protected
number of plaques (HSV-2 [6]): significantly reduced the number of plaques
number of plaques (HSV-1 [7]): significantly reduced the number of plaques
virus titers in culture media (HSV-1 (F strain) [8]): significantly reduced the virus titers
virus titers, pretreatment of virus (HSV-1 [9]; [25]): significantly reduced the virus titers
virus titers, pretreatment of cells (HSV-1 [9]; 20 μM): did not significantly reduce virus titers
virus multiplication, treatment after adsorption (HSV-1 [9]; 20 μM, p < 0.05): obvious inhibition on virus multiplication
CC50 at 24 h [1]: ~965 µM
cytotoxicity (Hep-2 cells): no significant cytotoxicity
inhibitory effects against HSV-1 (HSV-1 [10]): moderate inhibitory effects
binding of gD to cell surface, pre-incubation of gD protein (HSV-1 gD protein [11]; 5, 10, 20, 40 μM, gD protein 2 μg/mL, dose-dependent): significantly reduced the binding of gD to cell surface
amount of gD protein on cell surface, pretreatment of cells (HSV-1 gD protein [11]; 40, 20, 10, 5 μM for 1 h): did not significantly decrease the amount of gD protein on cell surface
levels of phosphorylated EGFR, PI3K, and Akt proteins (EGFR/PI3K/Akt pathway [12]): significantly reduced
expression level of gD mRNA (HSV-1 gD mRNA): significantly reduced the expression level of gD mRNA
activity of HIV reverse transcriptase [13]: inhibited the activity of HIV reverse transcriptase
expression of virus surface glycoproteins such as gD protein (gD protein): did not obviously influence the expression
protection of gB, gC, and gH/gL proteins from protease digestion [14]: could not protect
virus titers in culture media (HSV-2 (333 strain) [15]): significantly reduced the virus titers
virus titers, pretreatment of virus (HSV-2 [16]; [25]): significantly reduced the virus titers
virus titers, pretreatment of cells (HSV-2 [16]; 20 μM): did not significantly reduce virus titers
virus multiplication, treatment after adsorption (HSV-2 [16]; 20 μM, p < 0.05): obvious inhibition on virus multiplication
activation of Akt (p-Akt) (phosphorylated Akt; 5 μM for 2 h): about 3.9 fold of normal control group
activation of Akt (p-Akt) (phosphorylated Akt; 10 μM for 2 h): ~2.5 fold of normal control group
activation of Akt (p-Akt) (phosphorylated Akt; 20 μM for 2 h): ~1.2 fold of normal control group
CC50 at 24 h [4]: ~1150 µM
cytotoxicity (HeLa cells): no significant cytotoxicity
syncytium formation (HSV-2 [17]): markedly blocked syncytium formation
activation of EGFR, PI3K and Akt proteins (EGFR/PI3K/Akt pathway [18]): could not significantly influence the activation
level of phosphorylated EGFR (phosphorylated EGFR; 10 μM for 2 h): about 1.4 fold of normal control group
level of phosphorylated EGFR (phosphorylated EGFR; 20 μM for 2 h): ~0.8 fold of normal control group
brain histopathology (HE staining) (HSV-1 (F strain) [5]; 2.5 mg·kg-1, day 4 p.i., comparable to acyclovir (10 mg·kg-1)): only had tiny hyperaemia
brain histopathology (HE staining) (HSV-1 (F strain) [5]; 5 mg·kg-1, day 4 p.i.): nearly had no hyperaemia and infiltration of inflammatory cells
lung histopathology (HE staining) (HSV-1 (F strain) [5]; 2.5 or 5 mg·kg-1, day 4 p.i.): intact columnar epithelium
survival by day 14 post infection (HSV-1 (F strain) [5]; 2.5 or 5 mg·kg-1 intraperitoneal once daily for five days): 100%
body weight loss during the infection (HSV-1 (F strain) [5]; 2.5 or 5 mg·kg-1 intraperitoneal once daily for five days, placebo up to 19%): less than 5%
survival rates compared to placebo-treated control group (HSV-1 (F strain) [5]; 2.5 or 5 mg·kg-1 intraperitoneal, p < 0.01): significantly increased survival rates
pulmonary virus titers (HSV-1 (F strain) [5]; myricetin 2.5 or 5 mg·kg-1 intraperitoneal, day 4 p.i., plaque assay, p < 0.05): significantly decreased
level of phosphorylated PI3K (phosphorylated PI3K; 5 μM for 2 h): about 1.4 fold of normal control group
level of phosphorylated PI3K (phosphorylated PI3K; 10 μM for 2 h): about 1.4 fold of normal control group
level of phosphorylated PI3K (phosphorylated PI3K; 20 μM for 2 h): ~0.8 fold of normal control group
expression of ICP27 (HSV-1 (F strain) [19]): significantly reduced the expression of ICP27
total expression levels of EGFR, PI3K and Akt proteins [20]: did not significantly influence the total expression levels
inhibition of SARS-CoV helicase protein [21]: potently inhibited
expression level of gD mRNA (HSV-2 gD mRNA): significantly reduced the expression level of gD mRNA
protection of gD protein from protease digestion (HSV-1 gD protein [22]): obviously protected
Kd (HSV-1 gD protein [23]): ~0.0609 µM

O=c1c(O)c(-c2ccc(O)c(O)c2)oc2cc(O)cc(O)c12 [quercetinin, reference compound]
inhibitory effects against HSV-1 (HSV-1 [10]): moderate inhibitory effects

O=c1cc(-c2ccc(O)cc2)oc2cc(O)c(O)c(O)c12 [scutellarein, reference compound]
inhibition of SARS-CoV helicase protein [21]: potently inhibited
